{
  "source": "patent US20140162309A1",
  "about": "“Arsenical Fluorescent Agents and Assays” (priority 2010, published 2014)",
  "assay": "Fluorimetric response of arsenical dye upon introduction of TSH2 (liquid-liquid method)",
  "description": "When unbound, FlAsH-EDT2 is virtually non-fluorescent. Upon binding of four sulfur atoms, free rotation about the As—C bond is restricted, and the dye becomes brightly fluorescent. Since this visualization method labels proteins inside of cells with low background fluorescence, we hypothesized that this molecular sensor could detect the parasite metabolite without interference from other thiols present in biological fluids. The binding of two molecules of TSH2 should prevent the free rotation about the As—C bond in FlAsH, causing a fluorimetric response.\nFlAsH-EDT2 was virtually non-fluorescent, but upon introduction of TSH2, the fluorescence intensity rose. After approximately 10 minutes, the reaction reached saturation. […] The excitation and emission maxima for the conjugate were 505 nm and 527 nm respectively. This increase in fluorescence is readily detectable without a fluorimeter using a simple handheld black light such as those used at airport security checkpoints. This detection method could be implemented easily in a low technology, resource poor setting. We examined the limits of detection of the metabolite with FlAsH-EDT2. In our liquid-liquid method, a 10-fold excess of the metabolite is sufficient to observe a fluorimetric response within twenty minutes. Therefore, 2.5 nmol of the dye can be used to detect 25 nmol of the metabolite. While lower concentrations were detectable using a fluorimeter, the conjugation was too slow to be practical. However, FlAsH-EDT2 was not designed and is not optimized for this purpose, and it requires two molecules of TSH2 to bind in order to achieve the desired fluorescence response.",
  "data": [
    {"smiles": "O=C(O)c1ccccc1-c1c2ccc(=O)c([As]3SCCS3)c-2oc2c([As]3SCCS3)c(O)ccc12", "note": "[FlAsH-EDT2]", "values": [
      {"measurement": "amount of metabolite detected (limit of detection)", "setting": "2.5 nmol of the dye, liquid-liquid method", "value": 25, "unit": "nmol"},
      {"measurement": "time until the reaction reached saturation", "setting": "after introduction of TSH2", "value": "approximately 10 minutes"},
      {"measurement": "excess of the metabolite sufficient to observe a fluorimetric response", "setting": "liquid-liquid method, response within twenty minutes", "value": 10, "unit": "fold"},
      {"measurement": "fluorescence of unbound dye as % of the fluorescence of the FlAsH-(TSH2)2 conjugate", "setting": "normalized fluorescence measurements", "value": 0.4, "unit": "%"}
    ]}
  ]
}
